From patent US10638756B2, “Molecules having pesticidal utility, and intermediates, compositions, and processes, related thereto” (Dow AgroSciences LLC, priority 2017, dated 2020) come the findings set out here.

The subject of experiment [1] is Cabbage Looper (Trichoplusia ni). In words: Bioassay on Cabbage Looper (CL), 128-well diet tray assay. The format is in vivo. Conditions: 168 h, 50 μg/cm^2 on artificial diet, second instar larvae, five to seven days, read-out: CL % Control (or Mortality) rating. The procedure:
(§1) Certain molecules disclosed in this document were tested against BAW and CL using procedures described in the following examples. In the reporting of the results, the “BAW & CL Rating Table” was used (See Table Section).
Bioassays on CL were conducted using a 128-well diet tray assay. One to five second instar CL larvae were placed in each well (3 mL) of the diet tray that had been previously filled with 1 mL of artificial diet to which 50 μg/cm^2 of the test molecule (dissolved in 50 μL of 90:10 acetone-water mixture) had been applied (to each of eight wells) and then allowed to dry. Trays were covered with a clear self-adhesive cover, vented to allow gas exchange, and held at 25° C., 14:10 light-dark for five to seven days. Percent mortality was recorded for the larvae in each well; activity in the eight wells was then averaged. The results are indicated in the table entitled “Table ABC: Biological Results” (See Table Section).

Experiment [2] has as its system Beet Armyworm (Spodoptera exigua). Description: Bioassay on Beet Armyworm (BAW), 128-well diet tray assay. The format is in vivo. Conditions: for mortality at 50 µg/cm2: Spodoptera exigua, 168 h, 50 μg/cm^2 on artificial diet, second instar larvae, five to seven days, read-out: BAW % Control (or Mortality) rating. The method, then: as §1
Bioassays on BAW were conducted using a 128-well diet tray assay. […] Trays were covered with a clear self-adhesive cover, vented to allow gas exchange, and held at 25° C., 14:10 light-dark for five to seven days. Percent mortality was recorded for the larvae in each well; activity in the eight wells was then averaged. The results are indicated in the table entitled “Table ABC: Biological Results” (See Table Section).

One may read the mortality as the percentage killed. As to `CN(NC(=O)c1ccc(/C(F)=C/[C@@H](c2cc(Cl)c(Cl)c(Cl)c2)C(F)(F)F)cc1C(F)(F)F)c1ncccn1` (single isomer, unassigned) [F17], the mortality at 50 µg/cm2 in experiment [1] and in experiment [2] was 50 to 100% throughout.
`CN(NC(=O)c1ccc(/C(F)=C/[C@H](c2cc(Cl)c(Cl)c(Cl)c2)C(F)(F)F)cc1C(F)(F)F)c1ncccn1` (single isomer, unassigned) [F29]: the mortality at 50 µg/cm2 in experiment [1] and in experiment [2] was 50 to 100% each time.
In the case of `O=C(NNc1ncccn1)c1ccc(/C(F)=C/[C@@H](c2cc(Cl)c(Cl)c(Cl)c2)C(F)(F)F)cc1C(F)(F)F` (single isomer, unassigned) [F94], the mortality at 50 µg/cm2 in experiment [1] and in experiment [2] was 50 to 100% throughout. The “BAW (Table CD-2)” value in experiment [2] (0.005 μg/cm^2) is recorded as 0; in experiment [2] (0.05 μg/cm^2) it was 0; in experiment [2] (0.5 μg/cm^2), 7; in experiment [2] (5.0 μg/cm^2), 100.
On to `O=C(NNc1ncccn1)c1ccc(/C(F)=C/[C@H](c2cc(Cl)c(Cl)c(Cl)c2)C(F)(F)F)cc1C(F)(F)F` (single isomer, unassigned) [F120], for which the mortality at 50 µg/cm2 in experiment [1] and in experiment [2] was 50 to 100% in each case. The “BAW (Table CD-2)” value in experiment [2] (0.005 μg/cm^2), in experiment [2] (0.05 μg/cm^2), in experiment [2] (0.5 μg/cm^2) and in experiment [2] (5.0 μg/cm^2) was 100 each time.
On to `O=C(NNc1ncccn1)c1ccc(/C(F)=C/C(c2cc(Cl)c(Cl)c(Cl)c2)C(F)(F)F)cc1` (centres unmarked) [1A, (Z)—N′-(Pyrimidin-2-yl)-4-(1,4,4,4-tetrafluoro-3-(3,4,5-trichlorophenyl)but-1-en-1-yl)benzohydrazide], for which the “BAW (Table CD-1)” value in experiment [2] (0.05 μg/cm^2) amounted to 0; in experiment [2] (5.0 μg/cm^2), 25; in experiment [2] (50 μg/cm^2), 100.
For the compound `CN(NC(=O)c1ccc(/C(F)=C/C(c2cc(Cl)c(F)c(Cl)c2)C(F)(F)F)cc1C(F)(F)F)c1ncccn1` (centres unmarked) [F2, (Z)-4-(3-(3,5-Dichloro-4-fluorophenyl)-1,4,4,4-tetrafluorobut-1-en-1-yl)-N′-methyl-N′-(pyrimidin-2-yl)-2-(trifluoromethyl)benzohydrazide], the mortality at 50 µg/cm2 in experiment [1] and in experiment [2] was 50 to 100% in each case.
Turning to `CSc1nccc(NNC(=O)c2ccc(/C(F)=C/C(c3cc(Cl)c(Cl)c(Cl)c3)C(F)(F)F)cc2C(F)(F)F)n1` (centres unmarked) [F5, (Z)—N′-(2-(Methylthio)pyrimidin-4-yl)-4-(1,4,4,4-tetrafluoro-3-(3,4,5-trichlorophenyl)but-1-en-1-yl)-2-(trifluoromethyl)benzohydrazide], the mortality at 50 µg/cm2 in experiment [1] and in experiment [2] was 50 to 100% in each case.
`O=C(NNc1ccccn1)c1ccc(/C(F)=C/C(c2cc(Br)c(F)c(Br)c2)C(F)(F)F)cc1C(F)(F)F` (centres unmarked) [F6, (Z)-4-(3-(3,5-Dibromo-4-fluorophenyl)-1,4,4,4-tetrafluorobut-1-en-1-yl)-N′-(pyridin-2-yl)-2-(trifluoromethyl)benzohydrazide]: the mortality at 50 µg/cm2 in experiment [1] and in experiment [2] was 50 to 100% throughout.
Turning to `COc1cnc(N(C)NC(=O)c2ccc(/C(F)=C/C(c3cc(Cl)c(Cl)c(Cl)c3)C(F)(F)F)cc2C(F)(F)F)nc1` (centres unmarked) [F12, (Z)—N′-(5-Methoxypyrimidin-2-yl)-N′-methyl-4-(1,4,4,4-tetrafluoro-3-(3,4,5-trichlorophenyl)but-1-en-1-yl)-2-(trifluoromethyl)benzohydrazide], the mortality at 50 µg/cm2 in experiment [1] and in experiment [2] was 50 to 100% each time.
For `O=C(NNc1nc(Cl)nc(Cl)n1)c1ccc(/C(F)=C/C(c2cc(Cl)c(Cl)c(Cl)c2)C(F)(F)F)cc1C(F)(F)F` (centres unmarked) [F13, (Z)—N′-(4,6-Dichloro-1,3,5-triazin-2-yl)-4-(1,4,4,4-tetrafluoro-3-(3,4,5-trichlorophenyl)but-1-en-1-yl)-2-(trifluoromethyl)benzohydrazide], the mortality at 50 µg/cm2 in experiment [1] and in experiment [2] was 50 to 100% in each case.
Consider `COC(=O)c1scc(C)c1NNC(=O)c1ccc(/C(F)=C/C(c2cc(Cl)c(Cl)c(Cl)c2)C(F)(F)F)cc1C(F)(F)F` (centres unmarked) [F15, Methyl (Z)-4-methyl-3-(2-(4-(1,4,4,4-tetrafluoro-3-(3,4,5-trichlorophenyl)but-1-en-1-yl)-2-(trifluoromethyl)benzoyl)hydrazinyl)thiophene-2-carboxylate], for which the mortality at 50 µg/cm2 in experiment [1] and in experiment [2] was 50 to 100% throughout.
`O=C(NNc1cccc(Cl)n1)c1ccc(/C(F)=C/C(c2cc(Cl)c(Cl)c(Cl)c2)C(F)(F)F)cc1C(F)(F)F` (centres unmarked) [F18, (Z)—N′-(6-Chloropyridin-2-yl)-4-(1,4,4,4-tetrafluoro-3-(3,4,5-trichlorophenyl)but-1-en-1-yl)-2-(trifluoromethyl)benzohydrazide]: the mortality at 50 µg/cm2 in experiment [1] and in experiment [2] was 50 to 100% throughout.
In the case of `O=C(NNc1ccncn1)c1ccc(/C(F)=C/C(c2cc(Cl)c(Cl)c(Cl)c2)C(F)(F)F)cc1C(F)(F)F` (centres unmarked) [F19, (Z)—N′-(Pyrimidin-4-yl)-4-(1,4,4,4-tetrafluoro-3-(3,4,5-trichlorophenyl)but-1-en-1-yl)-2-(trifluoromethyl)benzohydrazide], the mortality at 50 µg/cm2 in experiment [1] and in experiment [2] was 50 to 100% each time.
For the compound `O=C(NNc1ncccn1)c1ccc(/C(F)=C/C(c2cc(Cl)c(Cl)c(Cl)c2)C(F)(F)F)cc1Cl` (centres unmarked) [F20, (Z)-2-Chloro-N′-(pyrimidin-2-yl)-4-(1,4,4,4-tetrafluoro-3-(3,4,5-trichlorophenyl)but-1-en-1-yl)benzohydrazide], the mortality at 50 µg/cm2 in experiment [1] and in experiment [2] was 50 to 100% in each case.
For `CS(=O)(=O)c1nc(Cl)c(Cl)c(NNC(=O)c2ccc(/C(F)=C/C(c3cc(Cl)c(Cl)c(Cl)c3)C(F)(F)F)cc2C(F)(F)F)c1Cl` (centres unmarked) [F21, (Z)-4-(1,4,4,4-Tetrafluoro-3-(3,4,5-trichlorophenyl)but-1-en-1-yl)-N′-(2,3,5-trichloro-6-methylsulfonyl-4-pyridin-4-yl)-2-(trifluoromethyl)benzohydrazide], the mortality at 50 µg/cm2 in experiment [1] and in experiment [2] was 50 to 100% throughout.
For `O=C(NNc1ccc(F)cc1F)c1ccc(/C(F)=C/C(c2cc(Cl)c(Cl)c(Cl)c2)C(F)(F)F)cc1C(F)(F)F` (centres unmarked) [F26, (Z)—N′-(2,4-Difluorophenyl)-4-(1,4,4,4-tetrafluoro-3-(3,4,5-trichlorophenyl)but-1-en-1-yl)-2-(trifluoromethyl)benzohydrazide], the mortality at 50 µg/cm2 in experiment [1] and in experiment [2] was 50 to 100% throughout.
On to `O=C(NNC1=NCCCN1)c1ccc(/C(F)=C/C(c2cc(Cl)c(Cl)c(Cl)c2)C(F)(F)F)cc1C(F)(F)F` (centres unmarked) [F27, (Z)-4-(1,4,4,4-Tetrafluoro-3-(3,4,5-trichlorophenyl)but-1-en-1-yl)-N′-(1,4,5,6-tetrahydropyrimidin-2-yl)-2-(trifluoromethyl)benzohydrazide], for which the mortality at 50 µg/cm2 in experiment [1] and in experiment [2] was 50 to 100% throughout.
In the case of `O=C(NNc1ccccc1F)c1ccc(/C(F)=C/C(c2cc(Cl)c(Cl)c(Cl)c2)C(F)(F)F)cc1C(F)(F)F` (centres unmarked) [F28, (Z)—N′-(2-fluorophenyl)-4-(1,4,4,4-tetrafluoro-3-(3,4,5-trichlorophenyl)but-1-en-1-yl)-2(trifluoromethyl)benzohydrazide], the mortality at 50 µg/cm2 in experiment [1] and in experiment [2] was 50 to 100% throughout.
As for `O=C(NNc1c(Cl)cnc(Cl)c1Cl)c1ccc(/C(F)=C/C(c2cc(Cl)c(Cl)c(Cl)c2)C(F)(F)F)cc1C(F)(F)F` (centres unmarked) [F30, (Z)-4-(1,4,4,4-Tetrafluoro-3-(3,4,5-trichlorophenyl)but-1-en-1-yl)-N′-(2,3,5-trichloro-4-pyridin-4-yl)-2-(trifluoromethyl)benzohydrazide], the mortality at 50 µg/cm2 in experiment [1] and in experiment [2] was 50 to 100% each time.
Regarding `O=C(NNc1cncnc1)c1ccc(/C(F)=C/C(c2cc(Cl)c(Cl)c(Cl)c2)C(F)(F)F)cc1C(F)(F)F` (centres unmarked) [F31, (Z)—N′-(Pyrimidin-5-yl)-4-(1,4,4,4-tetrafluoro-3-(3,4,5-trichlorophenyl)but-1-en-1-yl)-2-(trifluoromethyl)benzohydrazide], the mortality at 50 µg/cm2 in experiment [1] and in experiment [2] was 50 to 100% each time.
In the case of `O=C(NNc1ncccn1)c1ccc(/C(F)=C/C(c2ccc(F)c(C(F)(F)F)c2)C(F)(F)F)cc1C(F)(F)F` (centres unmarked) [F32, (Z)—N′-(Pyrimidin-2-yl)-4-(1,4,4,4-tetrafluoro-3-(4-fluoro-3-(trifluoromethyl)phenyl)but-1-en-1-yl)-2-(trifluoromethyl)benzohydrazide], the mortality at 50 µg/cm2 in experiment [1] and in experiment [2] was 50 to 100% in each case.
For the compound `O=C(NNc1ccnnc1)c1ccc(/C(F)=C/C(c2cc(Cl)c(Cl)c(Cl)c2)C(F)(F)F)cc1C(F)(F)F` (centres unmarked) [F33, (Z)—N′-(Pyridazin-4-yl)-4-(1,4,4,4-tetrafluoro-3-(3,4,5-trichlorophenyl)but-1-en-1-yl)-2-(trifluoromethyl)benzohydrazide], the mortality at 50 µg/cm2 in experiment [1] and in experiment [2] was 50 to 100% throughout.
